Source: the supplement of paper PMC11061612

Assays:
Assay in all cases: combination Emax (second highest fraction inhibited in the dose matrix, 72 h); higher = more inhibition; extreme values may be limits of the assay
[1] = tested on: 697 (B-Lymphoblastic Leukemia)
In short: (§1)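 Cell lines in DMEM/F12 or RPMI with 10% FBS were plated in 1536-well plates, held 24 hours at 37°C, 5% CO2, then given two-drug dose matrices for 72 hours (DMSO typically 0.2%). Viability was read by CellTiter-Glo 2.0 luminescence and scaled as inhibition from 0 (vehicle wells) to 1 (blank wells). Combination Emax is the second-highest inhibition in the matrix; Bliss excess is observed combination effect minus expected EA + EB − EA·EB, EA and EB being single-agent effects.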

[2] = tested on: C3A (Hepatocellular Carcinoma)
In short: as §1

[3] = tested on: DOV13 (Ovarian Carcinoma)
In short: as §1

[4] = tested on: JiyoyeP-2003 (Burkitt's Lymphoma)
In short: as §1

[5] = tested on: KARPAS-1106P (B-Cell Non-Hodgkin's Lymphoma)
In short: as §1

[6] = tested on: KATOIII (Gastric Carcinoma)
In short: as §1

[7] = tested on: LS-513 (Colorectal Carcinoma)
In short: as §1

[8] = tested on: MDA-MB-157 (Breast Carcinoma)
In short: as §1

[9] = tested on: MFH-ino (Other Solid Carcinomas)
In short: as §1

[10] = tested on: NCI-H1299 (Non-Small Cell Lung Carcinoma)
In short: as §1

[11] = tested on: NCI-H1694 (Small Cell Lung Carcinoma)
In short: as §1

[12] = tested on: NCI-H1793 (Lung Adenocarcinoma)
In short: as §1

SK-N-FI (Neuroblastoma) = tested on: SK-N-FI (Neuroblastoma)
In short: as §1

SN12C (Kidney Carcinoma) = tested on: SN12C (Kidney Carcinoma)
In short: as §1

[13] = tested on: SW1088 (Low Grade Glioma)
In short: as §1

[14] = tested on: SW1783 (Low Grade Glioma)
In short: as §1

[15] = tested on: SW1990 (Pancreatic Carcinoma)
In short: as §1

[16] = tested on: SW756 (Cervical Carcinoma)
In short: as §1

[17] = tested on: SW780 (Bladder Carcinoma)
In short: as §1

[18] = tested on: TE-5 (Esophageal Squamous Cell Carcinoma)
In short: as §1

Structure (SMILES) | combination Emax [1] | combination Emax [2] | combination Emax [3] | combination Emax [4] | combination Emax [5] | combination Emax [6] | combination Emax [7] | combination Emax [8] | combination Emax [9] | combination Emax [10] | combination Emax [11] | combination Emax [12] | combination Emax (SK-N-FI (Neuroblastoma)) | combination Emax (SN12C (Kidney Carcinoma)) | combination Emax [13] | combination Emax [14] | combination Emax [15] | combination Emax [16] | combination Emax [17] | combination Emax [18]
COc1cc2ncnc(Nc3ccc(F)c(Cl)c3)c2cc1OCCCN1CCOCC1 [Gefitinib] + CC(C)n1c(=O)n(C)c2cnc3cc(F)c(-c4ccc(OCCCN5CCCCC5)nc4)cc3c21 [AZD1390] (first compound max 10 µM, 7x7, partner max 0.3 µM) | 0.422 | 0.377 | 0.168 | 0.119 | 0.267 | 0.353 | 0.354 | 0.125 | 0 | 0.0669 | 0.19 | 0.143 | 0.175 | 0.21 | 0.108 | 0.0328 | 0.213 | 0.1 | 0.14 | 0.15
CS(=O)(=O)CCNCc1ccc(-c2ccc3ncnc(Nc4ccc(OCc5cccc(F)c5)c(Cl)c4)c3c2)o1 [Lapatinib] + C[C@@H](Oc1cc(-c2cnn(C3CCNCC3)c2)cnc1N)c1c(Cl)ccc(F)c1Cl [Crizotinib] (first compound max 10 µM, 7x7, partner max 10 µM) | 0.996 | 0.951 | 0.886 | 0.863 | 0.938 | 0.627 | 0.966 | 0.493 | 0.25 | 0.492 | 0.291 | 0.793 | 0.601 | 0.216 | 0.654 | 0.248 | 0.331 | 0.313 | 0.489 | 0.502
CC(=O)c1c(C)c2cnc(Nc3ccc(N4CCNCC4)cn3)nc2n(C2CCCC2)c1=O [Palbociclib] + CC1(C)CCC(CN2CCN(c3ccc(C(=O)NS(=O)(=O)c4ccc(NCC5CCOCC5)c([N+](=O)[O-])c4)c(Oc4cnc5[nH]ccc5c4)c3)CC2)=C(c2ccc(Cl)cc2)C1 [Venetoclax] (first compound max 10 µM, 7x7, partner max 1 µM) | 1 | 0.447 | 0.752 | 0.614 | 0.599 | 0.358 | 0.648 | 0.115 | 0.219 | 0.326 | 0.404 | 0.197 | 0.213 | 0.0441 | 0.429 | 0.0456 | 0.143 | 0.0569 | 0.108 | 0.0622
CC(=O)c1c(C)c2cnc(Nc3ccc(N4CCNCC4)cn3)nc2n(C2CCCC2)c1=O [Palbociclib] + Cc1c2c(nn1C)CSCc1cc(n(C)n1)CSc1cc(c3ccccc3c1)OCCCc1c(C(=O)O)n(C)c3c-2c(Cl)ccc13 [AZD5991] (first compound max 10 µM, 7x7, partner max 1 µM) | 1 | 0.592 | 0.752 | 0.588 | 0.897 | 0.406 | 0.658 | 0.669 | 0.382 | 0.478 | 0.667 | 0.212 | 0.557 | 0.166 | 0.364 | 0.159 | 0.204 | 0.29 | 0.223 | 0.157
CC(=O)c1c(C)c2cnc(Nc3ccc(N4CCNCC4)cn3)nc2n(C2CCCC2)c1=O [Palbociclib] + Cn1cnc2c(F)c(Nc3ccc(Br)cc3Cl)c(C(=O)NOCCO)cc21 [Selumetinib] (first compound max 10 µM, 7x7, partner max 10 µM) | 0.833 | 0.556 | 0.467 | 0.587 | 0.601 | 0.465 | 0.876 | 0.147 | 0.429 | 0.463 | 0.306 | 0.318 | 0.531 | 0.283 | 0.358 | 0.0922 | 0.334 | 0.343 | 0.356 | 0.213
COc1cccc(OCCCN)c1-c1cc(Nc2cnc(C#N)cn2)n[nH]1 [Prexasertib] + C=CCn1c(=O)c2cnc(Nc3ccc(N4CCN(C)CC4)cc3)nc2n1-c1cccc(C(C)(C)O)n1 [AZD1775] (first compound max 1 µM, partner max 1 µM) | 1 | 0.674 | 0.971 | 0.984 | 0.949 | 0.55 | 0.949 | 0.969 | 0.397 | 0.799 | 0.932 | 0.532 | 0.862 | 0.608 | 0.848 | 0.549 | 0.688 | 0.445 | 0.303 | 0.625
COc1cccc(OCCCN)c1-c1cc(Nc2cnc(C#N)cn2)n[nH]1 [Prexasertib] + CCc1c2c(nc3ccc(O)cc13)-c1cc3c(c(=O)n1C2)COC(=O)[C@]3(O)CC [SN-38] (first compound max 1 µM, 7x7, partner max 0.3 µM) | 1 | 0.649 | 0.959 | 1 | 0.897 | 0.562 | 0.751 | 0.989 | 0.704 | 0.79 | 1 | 0.769 | 0.886 | 0.76 | 0.849 | 0.847 | 0.741 | 0.802 | 0.969 | 0.818
COc1cccc(OCCCN)c1-c1cc(Nc2cnc(C#N)cn2)n[nH]1 [Prexasertib] + CN(C)CCCOc1ccc(-c2ccc3ncc4c(c3c2)n(C2CCOCC2)c(=O)n4C)cn1 [AZD0156] (first compound max 1 µM, 7x7, partner max 1 µM) | 1 | 0.613 | 0.927 | 0.987 | 0.919 | 0.522 | 0.824 | 0.935 | 0.394 | 0.747 | 0.794 | 0.468 | 0.908 | 0.342 | 0.797 | 0.445 | 0.705 | 0.379 | 0.136 | 0.543
COc1cccc(OCCCN)c1-c1cc(Nc2cnc(C#N)cn2)n[nH]1 [Prexasertib] + C[C@@H]1COCCN1C2=NC(=NC(=C2)C3(CC3)[S@](=N)(=O)C)C4=C5C=CNC5=NC=C4 [AZD6738] (first compound max 1 µM, 7x7, partner max 10 µM) | 1 | 0.528 | 0.945 | 0.981 | 0.905 | 0.586 | 0.8 | 0.949 | 0.572 | 0.732 | 0.823 | 0.423 | 0.915 | 0.313 | 0.762 | 0.496 | 0.695 | 0.426 | 0.201 | 0.548
COc1cccc(OCCCN)c1-c1cc(Nc2cnc(C#N)cn2)n[nH]1 [Prexasertib] + Cc1cc2ncnn2cc1Nc1ncc2c(n1)n(C1CCOCC1)c(=O)n2C [AZD7648] (first compound max 1 µM, 7x7, partner max 10 µM) | 1 | 0.611 | 0.914 | 0.984 | 0.909 | 0.526 | 0.848 | 0.961 | 0.464 | 0.711 | 0.808 | 0.432 | 0.915 | 0.387 | 0.762 | 0.473 | 0.703 | 0.489 | 0.26 | 0.526
COc1cccc(OCCCN)c1-c1cc(Nc2cnc(C#N)cn2)n[nH]1 [Prexasertib] + O=C(c1cc(Cc2n[nH]c(=O)c3ccccc23)ccc1F)N1CCN(C(=O)C2CC2)CC1 [Olaparib] (first compound max 1 µM, 7x7, partner max 10 µM) | 1 | 0.53 | 0.962 | 0.986 | 0.897 | 0.431 | 0.781 | 0.938 | 0.45 | 0.694 | 0.797 | 0.532 | 0.889 | 0.387 | 0.792 | 0.508 | 0.696 | 0.456 | 0.23 | 0.521
COc1cc2c(cc1OCCCCCOc1cc3c(cc1OC)C(=O)N1C=C(C)C[C@H]1C=N3)N=C[C@@H]1CC(C)=CN1C2=O [SG3199] + O=C(c1cc(Cc2n[nH]c(=O)c3ccccc23)ccc1F)N1CCN(C(=O)C2CC2)CC1 [Olaparib] (first compound max 0.001 µM, 7x7, partner max 10 µM) | 0.984 | 0.215 | 0.249 | 0.124 | 0.467 | 0.0764 | 0.155 | 0.0754 | 0.134 | 0.138 | 0.112 | 0.138 | 0.0819 | 0.172 | 0.151 | 0.0897 | 0.125 | 0.149 | 0.128 | 0.0521
CCc1c2c(nc3ccc(O)cc13)-c1cc3c(c(=O)n1C2)COC(=O)[C@]3(O)CC [SN-38] + CN(C)CCCOc1ccc(-c2ccc3ncc4c(c3c2)n(C2CCOCC2)c(=O)n4C)cn1 [AZD0156] (first compound max 0.3 µM, 7x7, partner max 1 µM) | 1 | 0.557 | 0.936 | 0.975 | 0.901 | 0.16 | 0.526 | 0.742 | 0.812 | 0.529 | 0.968 | 0.505 | 0.669 | 0.738 | 0.54 | 0.748 | 0.525 | 0.79 | 0.33 | 0.796
